What follows are compounds tested against T1, Recombinant human HSP90α (Homo sapiens, UniProt P07900) (assay: HSP90 radioligand filter binding test, competition with [3H]17AAG). Conditions: [3H]17AAG 0.08 μM; HSP90 1.5 μg/assay; 22° C., 30 min; read-out: HSP90 inhibition IC50.
T1 construct: host or cells: E. coli
Description: The binding of geldanamycin or 17-allylamino-17-demethoxygeldanamycin (17AAG) to HSP90 and competitive inhibition thereof can be utilised in order to determine the inhibitory activity of the compounds according to the invention (Carreras et al. 2003, Chiosis et al. 2002).
In the specific case, a radioligand filter binding test is used. The radioligand used here is tritium-labelled 17-allylaminogeldanamycin, [3H]17AAG. This filter binding test allows a targeted search for inhibitors which interfere with the ATP binding site.
• Recombinant human HSP90α (E. coli expressed, 95% purity); • [3H]17AAG (17-allylaminogeldanamycin, [allylamino-2,3-^3H. Specific activity: 1.11×10^12 Bq/mmol (Moravek, MT-1717); • HEPES filter buffer (50 mM HEPES, pH 7.0, 5 mM MgCl2, BSA 0.01%) Multiscreen FB (1 μm) filter plate (Millipore, MAFBNOB 50). Method
The 96-well microtitre filter plates are firstly irrigated and coated with 0.1% of polyethylenimine.
The test is carried out under the following conditions: • Reaction temperature 22° C. • Reaction time: 30 min., shaking at 800 rpm • Test volume: 50 μl • Final concentrations: • 50 mM HEPES HCl, pH 7.0, 5 mM MgCl2, 0.01% (w/v) BSA • HSP90:1.5 μg/assay • [3H]17AAG: 0.08 μM.
At the end of the reaction, the supernatant in the filter plate is removed by suction with the aid of a vacuum manifold (Multiscreen Separation System, Millipore), and the filter is washed twice.
The filter plates are then measured in a beta counter (Microbeta, Wallac) with scintillator (Microscint 20, Packard).
“% of control” is determined from the “counts per minutes” values and the IC-50 value of a compound is calculated therefrom.

SMILES | IC50
CCOC(=O)CCCOc1cc(-c2c(C#N)c(N)nc3sc(C(N)=O)c(N)c23)ccc1OC [Compound A7c, 2-aminocarbonyl-3,6-diamino-5-cyano-4-[3-(3-ethoxycarbonylpropoxy)-4-methoxyphenyl]thieno[2,3-b]pyridine] | 1300 nM
COc1ccc(-c2c(C#N)c(N)nc3sc(C(N)=O)c(N)c23)cc1OCc1ccccc1C [Compound A11] | 1400 nM
COc1ccc(-c2c(C#N)c(N)nc3sc(C(N)=O)c(N)c23)cc1OC [Compound A1, 2-aminocarbonyl-3,6-diamino-5-cyano-4-(3,4-dimethoxyphenyl)thieno[2,3-b]pyridine] | 1000 nM
COc1ccc(-c2c(C#N)c(N)nc3sc(C(N)=O)c(N)c23)cc1OCc1ccc(C(=O)O)cc1 [Compound A689] | 740 nM
CCOC(=O)CCCCOc1cc(-c2c(C#N)c(N)nc3sc(C(N)=O)c(N)c23)ccc1OC [Compound A7, 2-aminocarbonyl-3,6-diamino-5-cyano-4-[3-(4-ethoxycarbonylbutoxy)-4-methoxyphenyl]thieno[2,3-b]pyridine] | 1500 nM
CCOC(=O)CCCCCOc1cc(-c2c(C#N)c(N)nc3sc(C(N)=O)c(N)c23)ccc1OC [Compound A4, 2-aminocarbonyl-3,6-diamino-5-cyano-4-[3-(5-ethoxycarbonylpentyloxy)-4-methoxyphenyl]thieno[2,3-b]pyridine] | 2500 nM
COc1ccc(-c2c(C#N)c(N)nc3sc(C(N)=O)c(N)c23)cc1OCc1cccc(C(F)(F)F)c1 [Compound A21] | 780 nM
COc1ccc(-c2c(C#N)c(N)nc3sc(C(N)=O)c(N)c23)cc1OCc1cccc(OC(F)F)c1 [Compound A693] | 670 nM
COc1ccc(-c2c(C#N)c(N)nc3sc(C(N)=O)c(N)c23)cc1OCCCCCC(=O)O [Compound A7b, 2-aminocarbonyl-3,6-diamino-5-cyano-4-[3-(5-carboxypentyloxy)-4-methoxyphenyl]thieno[2,3-b]pyridine] | 890 nM
CCOC(=O)c1sc2nc(N)c(C#N)c(-c3ccc(OC)c(OC)c3)c2c1N [Compound A9, 2-ethoxycarbonyl-3,6-diamino-5-cyano-4-(3,4-dimethoxyphenyl)thieno[2,3-b]pyridine] | 14000 nM
COc1ccc(-c2c(C#N)c(N)nc3sc(C(N)=O)c(N)c23)cc1OCC(N)=O [Compound A30] | 3300 nM
COc1ccc(-c2c(C#N)c(N)nc3sc(C(N)=O)c(N)c23)cc1OCCCCC(=O)O [Compound A7a, 2-aminocarbonyl-3,6-diamino-5-cyano-4-[3-(4-carboxybutoxy)-4-methoxyphenyl]thieno[2,3-b]pyridine] | 650 nM

— patent US7943637B2, “Thienopyridine derivatives and the use thereof as HSP90 modulators” (Merck Patent GmbH, priority 2005, dated 2011)
